Results: PMC10281575, “PfCRT mutations conferring piperaquine resistance in falciparum malaria shape the kinetics of quinoline drug binding and transport” (PLOS Pathogens, 2023)
Values joined by “and” are separate entries in the source; they are usually repeats but may differ in a detail not shown here. Equal entries are not always repeated.

Molecular target: T1, PfCRT^Dd2_F145I (Plasmodium falciparum, UniProt Q8IBZ9, A220S/F145I/I356T/K76T/M74I/N326S/N75E/Q271E/R371I)
T1 construct: expressed in transfected cells; host or cells: Xenopus laevis oocytes injected with in vitro transcribed RNA (pSP64T)
T1 sequence (Q8IBZ9 1-424 M74I/N75E/K76T/F145I/A220S/Q271E/N326S/I356T/R371I): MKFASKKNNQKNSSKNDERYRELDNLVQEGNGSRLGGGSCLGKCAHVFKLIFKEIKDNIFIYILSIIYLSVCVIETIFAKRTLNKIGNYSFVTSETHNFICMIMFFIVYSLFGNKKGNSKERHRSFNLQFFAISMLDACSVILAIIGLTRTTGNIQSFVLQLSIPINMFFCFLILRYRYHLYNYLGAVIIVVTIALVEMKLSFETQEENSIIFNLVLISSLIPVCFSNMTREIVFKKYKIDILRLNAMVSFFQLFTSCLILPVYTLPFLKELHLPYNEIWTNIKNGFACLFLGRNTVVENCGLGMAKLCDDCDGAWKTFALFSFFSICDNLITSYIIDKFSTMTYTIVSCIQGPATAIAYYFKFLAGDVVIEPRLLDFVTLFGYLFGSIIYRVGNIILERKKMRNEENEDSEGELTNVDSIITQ
Assay: Competition kinetics of drug transport (radiolabeled substrate plus cold inhibitor), PfCRT^Dd2_F145I-expressing oocytes
Type: cell-based
Description: To further characterize the kinetic relationship between CQ and PPQ, we performed a series of competition reactions. To this end, water-injected oocytes and PfCRT-expressing oocytes were incubated in medium containing one of seven concentrations of radio-labeled CQ and one of six concentrations of cold PPQ for 60 min before the amount of radio-labeled CQ uptake was determined. The rate of PfCRT-mediated CQ uptake was calculated for each condition by subtracting the corresponding value obtained for water-injected oocytes from those of PfCRT-expressing oocytes. The results were analyzed as a function of the CQ concentration (Fig 4A) and 16 different models of substrate competition were globally fit to the data by the least-squares method, using Python. The models were ranked, according to their Akaike information criterion difference (ΔAICC) and their Akaike weight (Fig 4B), with the most plausible model being the one with the lowest AICC (ΔAICC = 0) and the highest Akaike weight.
A complementary set of experiments was undertaken to investigate the kinetic mechanism by which PfCRT^Dd2_F145I accepts CQ and PPQ (Fig 6). […] These included a global fit of the substrate competition data to the 16 kinetic models (Fig 6), analysis of the secondary plots (Vmax,app and Vmax,app/KM,app as a function of the inhibitor concentration) (Fig 7A), a fractional velocity plot analysis (Fig 7B) and a comparison of the experimental data with the modelled data using the noncompetitive inhibition equation (Fig 7C to 7F). […] The fractional velocity plot illustrated the partial character of the noncompetitive inhibition mechanism by yielding a partiality factor β^CQ = 0.31 ± 0.04, by which PPQ reduces the transport velocity of CQ (Fig 7B). […] A 3D model of the kinetics between PfCRT^Dd2_F145I, CQ and PPQ, and analyses of the residuals as a function of substrate and inhibitor concentrations confirmed that the model was also an appropriate explanation for the mutant transporter (Fig 7C to 7F).
Drug transport assays were performed as previously described. Briefly, measurements of radiolabeled drug uptake were made over 1 h, unless otherwise specified. […] Where specified, one or more unlabeled drugs were also present at the indicated concentrations. The direction of drug transport in the assays is from the extracellular medium (pH 6) into the oocyte cytosol (pH 7.2), which corresponds to the efflux of CQ or PPQ from the acidic digestive vacuole (pH 5.2) into the parasite cytosol (pH 7.2). The uptake assays were terminated by removing the oocytes from the reaction medium and washing them three times with 2 mL of ice-cold ND96 buffer. Each oocyte was transferred to a separate scintillation vial and lysed by the addition of 200 μL of a 5% SDS solution. The radioactivity in the sample was measured using a liquid scintillation analyser Tri-Carb 4910 TR (PerkinElmer). Water-injected oocytes were analyzed in parallel as a negative control. The buffer from each condition was measured in duplicate in parallel to each experiment to transform counts per minute into pmol of drug. Drug uptake attributable to PfCRT was determined by subtracting the background uptake from water-injected oocytes from that of PfCRT-expressing oocytes. In all cases, at least three independent experiments were performed on oocytes from different frogs, and for each condition in an experiment, measurements were made from 10 oocytes per treatment.
The following equations were adopted from Segel (1993), and the reader is referred to that text for the assumptions made in the author’s approach in the derivation of each equation [31]. The concentration of substrate is denoted as [S1] and the concentration of the inhibiting substrate is denoted as [S2]. KS1 and KS2 are the dissociation constants for the respective substrate-protein complexes.
Analyses of the kinetic data were performed using SigmaPlot version 13.0 and Python. […]

Clc1ccc2c(N3CCN(CCCN4CCN(c5ccnc6cc(Cl)ccc56)CC4)CC3)ccnc2c1 [PPQ, piperaquine]
PfCRTDd2_F145I-mediated PPQ transport (10 µM PPQ, 0 µM CQ): 11.21 pmol oocyte-1 h-1 and 11.88 pmol oocyte-1 h-1 and 9.04 pmol oocyte-1 h-1
PfCRTDd2_F145I-mediated PPQ transport (10 µM PPQ, 50 µM CQ): 9.4 pmol oocyte-1 h-1 and 8.02 pmol oocyte-1 h-1 and 11.57 pmol oocyte-1 h-1
PfCRTDd2_F145I-mediated PPQ transport (10 µM PPQ, 125 µM CQ): 7.93 pmol oocyte-1 h-1 and 10.99 pmol oocyte-1 h-1 and 8.58 pmol oocyte-1 h-1
PfCRTDd2_F145I-mediated PPQ transport (10 µM PPQ, 200 µM CQ): 8.51 pmol oocyte-1 h-1 and 7.12 pmol oocyte-1 h-1 and 10.43 pmol oocyte-1 h-1
PfCRTDd2_F145I-mediated PPQ transport (10 µM PPQ, 400 µM CQ): 7.41 pmol oocyte-1 h-1 and 6.45 pmol oocyte-1 h-1
PfCRTDd2_F145I-mediated PPQ transport (50 µM PPQ, 25 µM CQ): 33.88 pmol oocyte-1 h-1 and 40.73 pmol oocyte-1 h-1 and 51.89 pmol oocyte-1 h-1
PfCRTDd2_F145I-mediated PPQ transport (50 µM PPQ, 50 µM CQ): 40.89 pmol oocyte-1 h-1 and 44.12 pmol oocyte-1 h-1 and 39.8 pmol oocyte-1 h-1
PfCRTDd2_F145I-mediated PPQ transport (50 µM PPQ, 125 µM CQ): 36.42 pmol oocyte-1 h-1 and 31.75 pmol oocyte-1 h-1 and 38.13 pmol oocyte-1 h-1
PfCRTDd2_F145I-mediated PPQ transport (50 µM PPQ, 400 µM CQ): 17.03 pmol oocyte-1 h-1 and 21.16 pmol oocyte-1 h-1
PfCRTDd2_F145I-mediated PPQ transport (100 µM PPQ, 0 µM CQ): 60.49 pmol oocyte-1 h-1 and 74.22 pmol oocyte-1 h-1 and 56.91 pmol oocyte-1 h-1
PfCRTDd2_F145I-mediated PPQ transport (100 µM PPQ, 25 µM CQ): 59.02 pmol oocyte-1 h-1 and 57.16 pmol oocyte-1 h-1 and 56.63 pmol oocyte-1 h-1
PfCRTDd2_F145I-mediated PPQ transport (100 µM PPQ, 50 µM CQ): 63 pmol oocyte-1 h-1 and 53.26 pmol oocyte-1 h-1 and 51.28 pmol oocyte-1 h-1
PfCRTDd2_F145I-mediated PPQ transport (100 µM PPQ, 125 µM CQ): 52.64 pmol oocyte-1 h-1 and 47.96 pmol oocyte-1 h-1 and 53 pmol oocyte-1 h-1
PfCRTDd2_F145I-mediated PPQ transport (100 µM PPQ, 200 µM CQ): 45.31 pmol oocyte-1 h-1 and 44.84 pmol oocyte-1 h-1 and 60.71 pmol oocyte-1 h-1
PfCRTDd2_F145I-mediated PPQ transport (100 µM PPQ, 400 µM CQ): 44.06 pmol oocyte-1 h-1 and 56.54 pmol oocyte-1 h-1
PfCRTDd2_F145I-mediated PPQ transport (200 µM PPQ, 25 µM CQ): 102.24 pmol oocyte-1 h-1 and 78.79 pmol oocyte-1 h-1 and 91.29 pmol oocyte-1 h-1
PfCRTDd2_F145I-mediated PPQ transport (200 µM PPQ, 50 µM CQ): 94.74 pmol oocyte-1 h-1 and 73.08 pmol oocyte-1 h-1 and 99.27 pmol oocyte-1 h-1
PfCRTDd2_F145I-mediated PPQ transport (200 µM PPQ, 125 µM CQ): 78.46 pmol oocyte-1 h-1 and 108.53 pmol oocyte-1 h-1 and 73.37 pmol oocyte-1 h-1
PfCRTDd2_F145I-mediated PPQ transport (200 µM PPQ, 400 µM CQ): 85.32 pmol oocyte-1 h-1 and 58.78 pmol oocyte-1 h-1
PfCRTDd2_F145I-mediated PPQ transport (300 µM PPQ, 0 µM CQ): 115.45 pmol oocyte-1 h-1 and 117.23 pmol oocyte-1 h-1
PfCRTDd2_F145I-mediated PPQ transport (300 µM PPQ, 25 µM CQ): 115.11 pmol oocyte-1 h-1 and 88.35 pmol oocyte-1 h-1 and 102.98 pmol oocyte-1 h-1
PfCRTDd2_F145I-mediated PPQ transport (300 µM PPQ, 50 µM CQ): 85.96 pmol oocyte-1 h-1 and 103.73 pmol oocyte-1 h-1 and 93.02 pmol oocyte-1 h-1
PfCRTDd2_F145I-mediated PPQ transport (300 µM PPQ, 125 µM CQ): 84.14 pmol oocyte-1 h-1 and 103.07 pmol oocyte-1 h-1 and 81.24 pmol oocyte-1 h-1
PfCRTDd2_F145I-mediated PPQ transport (300 µM PPQ, 200 µM CQ): 75.68 pmol oocyte-1 h-1 and 80.62 pmol oocyte-1 h-1 and 99.18 pmol oocyte-1 h-1
PfCRTDd2_F145I-mediated PPQ transport (300 µM PPQ, 400 µM CQ): 77.19 pmol oocyte-1 h-1 and 102 pmol oocyte-1 h-1
PfCRTDd2_F145I-mediated PPQ transport (400 µM PPQ, 0 µM CQ): 130.32 pmol oocyte-1 h-1 and 101.99 pmol oocyte-1 h-1
PfCRTDd2_F145I-mediated PPQ transport (400 µM PPQ, 25 µM CQ): 115.19 pmol oocyte-1 h-1 and 112.21 pmol oocyte-1 h-1 and 107.93 pmol oocyte-1 h-1
PfCRTDd2_F145I-mediated PPQ transport (400 µM PPQ, 50 µM CQ): 86.8 pmol oocyte-1 h-1 and 110.06 pmol oocyte-1 h-1 and 116.13 pmol oocyte-1 h-1
PfCRTDd2_F145I-mediated PPQ transport (400 µM PPQ, 125 µM CQ): 93.73 pmol oocyte-1 h-1 and 100.31 pmol oocyte-1 h-1 and 96.89 pmol oocyte-1 h-1
PfCRTDd2_F145I-mediated PPQ transport (400 µM PPQ, 200 µM CQ): 75.94 pmol oocyte-1 h-1 and 96.5 pmol oocyte-1 h-1 and 106.38 pmol oocyte-1 h-1
PfCRTDd2_F145I-mediated PPQ transport (400 µM PPQ, 400 µM CQ): 105.94 pmol oocyte-1 h-1 and 73.74 pmol oocyte-1 h-1
PfCRTDd2_F145I-mediated PPQ transport (500 µM PPQ, 0 µM CQ): 124.15 pmol oocyte-1 h-1 and 149.83 pmol oocyte-1 h-1
PfCRTDd2_F145I-mediated PPQ transport (500 µM PPQ, 25 µM CQ): 134.09 pmol oocyte-1 h-1 and 105.12 pmol oocyte-1 h-1 and 107.54 pmol oocyte-1 h-1
PfCRTDd2_F145I-mediated PPQ transport (500 µM PPQ, 50 µM CQ): 102.67 pmol oocyte-1 h-1 and 147.39 pmol oocyte-1 h-1 and 78.85 pmol oocyte-1 h-1
PfCRTDd2_F145I-mediated PPQ transport (500 µM PPQ, 125 µM CQ): 105.59 pmol oocyte-1 h-1 and 76.21 pmol oocyte-1 h-1 and 122.33 pmol oocyte-1 h-1
PfCRTDd2_F145I-mediated PPQ transport (500 µM PPQ, 200 µM CQ): 62.06 pmol oocyte-1 h-1 and 101.24 pmol oocyte-1 h-1
